Test results published in patent US11103512B2, “Crystalline form of (S)-[2-chloro-4-fluoro-5-(7-morpholin-4-yl-quinazolin-4-yl)phenyl]-(6-methoxy-pyridazin-3-yl)-methanol” (Merck Patent GmbH, priority 2017, dated 2021).
Values after ≈ are worked out from the molar mass of the structure shown.

Experiments:
[1] = Solubility measurements in biorelevant media (24 h shake, HPLC); assay type: physicochemical
[2] = Water vapour sorption isotherm (DVS, 25° C.); assay type: physicochemical; settings: for water uptake / hygroscopic behaviour (in words): water vapour sorption isotherm, FIG. 3
From the text: Form I can therefore be classified acc. to Ph. Eur. Criteria (section 5.11.) as not hygroscopic. The max. water uptake level (Δmmax at 98% rh) of Form I is <1% m/m. […] This non-hygroscpopic behaviour of Form I is advantageous both in case of using the material as a starting material, as it readily lends itself to storage, as well as using it “as is” in a pharmaceutical dosage form.
• Powder X-ray diffractions (XRPD) were obtained by standard techniques as described in the European Pharmacopeia 7th Edition chapter 2.9.33 (Cu-Kai radiation, λ=1.5406 Å, Stoe StadiP 611 KL transmission diffractometer, ambient temperature); and in particular • For the amorphous form: The XRPD measurement was performed in transmission geometry with Cu-Kα1 radiation on a Stoe StadiP 611 diffractometer equipped with Mythen1K Si-strip detector (PSD). Approximately 5-20 mg of the sample were prepared on a combinatorial 96-well-plate sample holder comprising a mostly amorphous Kapton® foil on the bottom of the wells. Measurement was carried out by setting following parameters: • angular range: −36°−36 °2θ folded to 0-36 °2θ • angular resolution: 0.03 °2θ • PSD step with: 4 °2θ • measurement time: 30 s/PSD-step • generator settings: 40 mA, 40 kV • For the crystalline Form I: The measurement was performed in transmission geometry with Cu-Kα1 radiation on a Stoe StadiP 611 diffractometer equipped with Mythen1K Si-strip detector (PSD). Approximately 10-100 mg of the sample were prepared between amorphous films. Measurement was carried out by setting following parameters: • angular range: 1°-41 °2θ • angular resolution: 0.015 °2θ • PSD step with: 0.49 °2θ • measurement time: 15 s/PSD-step • generator settings: 40 mA, 40 kV • DSC: • For the amorphous form: • Temperature modulated DSC (TOPEM®) was acquired on a Mettler-Toledo heat-flux Differential Scanning Calorimeter DSC 1 system. Approximately 0.5 mg sample amount were weighed accurately in a 40 μl Aluminium pan which was hermetically closed by a lid. The scan was carried out from 0° C. to 250° C. with a linear heating rate of 2 K/min, overlapped by a non-linear puls-modulated temperature programme with a pulse height of ±0.5 K and a stochastic pulse width from 15 s (min) to 45 s (max). Nitrogen purge gas at 50 mL/min was used. • For crystalline Form I: • DSC measurement was acquired on Mettler-Toledo heat-flux Differential Scanning Calorimeter system DSC 821e. Approximately 1-5 mg sample amount were weighed accurately in a 40 μl Aluminium pan with pierced lid. The scan was carried out from 25° C. to 350° C. with a linear heating rate of 5 K/min and a nitrogen purge gas at 50 mL/min. • TGA: • Sample was investigated on a Mettler-Toledo Thermogravimetric Analyser TGA 851 with autosampler, using a nitrogen inert gas atmosphere (flow 50 mL/min). Approximately 5-20 mg sample amount were weighed accurately in a 100 μl Aluminium pan and hermetically closed by Aluminium lids. Just before insertion to the oven the lid was pierced by a needle of the autosampler system. Scans were carried out from 25° C. to 350° C. at 5 K/min. The result was baseline-corrected with a blank run from an empty 100 μl Aluminium pan of the same type, using the identical temperature profile. • Water Vapour Sorption Isotherm: • Approximately 1-40 mg sample amount were weighed accurately into a 100 μl Al pan and hung into the sample position of the DVS instrument with microbalance and incubator (DVS-Intrinsic; Surface Measurement Systems, SMS). […]

[3] = Thermal behaviour by DSC and TGA; assay type: physicochemical; settings: DSC and TGA profiles
Experimental: By contrast, the amorphous material decomposes at 170° C. (FIG. 2). The crystalline material therefore lends itself to further processing that involves high temperatures, such as hot melt extrusion and melt granulation.
• Powder X-ray diffractions (XRPD) were obtained by standard techniques as described in the European Pharmacopeia 7th Edition chapter 2.9.33 (Cu-Kai radiation, λ=1.5406 Å, Stoe StadiP 611 KL transmission diffractometer, ambient temperature); and in particular • For the amorphous form: The XRPD measurement was performed in transmission geometry with Cu-Kα1 radiation on a Stoe StadiP 611 diffractometer equipped with Mythen1K Si-strip detector (PSD). Approximately 5-20 mg of the sample were prepared on a combinatorial 96-well-plate sample holder comprising a mostly amorphous Kapton® foil on the bottom of the wells. Measurement was carried out by setting following parameters: • angular range: −36°−36 °2θ folded to 0-36 °2θ • angular resolution: 0.03 °2θ • PSD step with: 4 °2θ • measurement time: 30 s/PSD-step • generator settings: 40 mA, 40 kV • For the crystalline Form I: The measurement was performed in transmission geometry with Cu-Kα1 radiation on a Stoe StadiP 611 diffractometer equipped with Mythen1K Si-strip detector (PSD). Approximately 10-100 mg of the sample were prepared between amorphous films. […]

[4] = target: DNA-dependent protein kinase (DNA-PK) (Homo sapiens, UniProt P78527); settings: background statement, no values; cited from earlier work
[5] = tested on: DNA-PK autophosphorylation in cancer cell lines; settings: background statement, no values; cited from earlier work

Row | Compound | solubility at 24 h ([1]; FaSSIF (fasted state simulated intestinal fluid), pH 6.5, thermodynamic from solid, FaSSIF, pH of medium 6.5, 37 °C) | solubility at 24 h ([1]; FeSSIF (fed state simulated intestinal fluid), pH 5, thermodynamic from solid, FeSSIF, pH of medium 5.0, 37 °C) | solubility at 24 h ([1]; SGF (simulated gastric fluid without pepsin), pH 1.2, simulated gastric fluid, thermodynamic from solid, SGF, pH of medium 1.2, 37 °C) | max. water uptake level (Δmmax at 98% rh) ([2]; 98% rh, 25° C.) | hygroscopicity classification acc. to Ph. Eur. criteria (section 5.11.) ([2]; dm (80% rh−40% rh), 25° C.) | water uptake levels ([2]; relative humidity range 40-80% rh, 25° C.) | melting/decomposition temperature (thermal stability) [3] | water uptake / hygroscopic behaviour (in words) [2] | water uptake / hygroscopic behaviour (in words) ([2]; listed as amorphous solid form) | inhibition of DNA-PK activity (in words) [4] | inhibition of DNA-PK autophosphorylation (in words) [5]
1 | COc1ccc([C@@H](O)c2cc(-c3ncnc4cc(N5CCOCC5)ccc34)c(F)cc2Cl)nn1 [Form I, (S)-[2-chloro-4-fluoro-5-(7-morpholin-4-yl-quinazolin-4-yl)phenyl]-(6-methoxy-pyridazin-3-yl)-methanol] | 0.003 mg/mL (≈ 6.23 µM) | 0.017 ± 0.001 mg/mL (≈ 35.3 µM) | 0.891 ± 0.033 mg/mL (≈ 1850 µM) | < 1 % m/m | not hygroscopic (dm (80% rh−40% rh)<0.2 wt %: not hygroscopic) | < 1 % m/m | above 200 °C | – | – | – | –
2 | COc1ccc([C@@H](O)c2cc(-c3ncnc4cc(N5CCOCC5)ccc34)c(F)cc2Cl)nn1 [amorphous material, (S)-[2-chloro-4-fluoro-5-(7-morpholin-4-yl-quinazolin-4-yl)phenyl]-(6-methoxy-pyridazin-3-yl)-methanol] | – | – | – | – | – | – | 170 °C | significant water uptake | hygroscopic | – | –
3 | COc1ccc([C@@H](O)c2cc(-c3ncnc4cc(N5CCOCC5)ccc34)c(F)cc2Cl)nn1 [(S)-[2-chloro-4-fluoro-5-(7-morpholin-4-yl-quinazolin-4-yl)phenyl]-(6-methoxy-pyridazin-3-yl)-methanol] | – | – | – | – | – | – | – | – | – | potent and selective inhibitor | potent inhibition
